Active and inactive are the calls of the source. No cut-off for these calls is given here. Numbered stars: 1 amine (or outer) side, 2 acyl side, 3 side chain; on linkers, the order of the positions; unused ones are H or OH. Square brackets hold non-standard residues; d marks the D form. Peptide text beside a SMILES is read from it. Orn(Me) = CN(CCC[C@H](N[*:1])C(=O)[*:2])[*:3]; 1Nal = N[C@@H](Cc1cccc2ccccc12)C(=O)O; hPhe = N[C@@H](CCc1ccccc1)C(=O)O; Cha = N[C@@H](CC1CCCCC1)C(=O)O; Nle = CCCC[C@H](N)C(=O)O
Biological target: T1, C3a anaphylatoxin chemotactic receptor (Homo sapiens) (UniProt Q16581)
T1 sequence (whole entry): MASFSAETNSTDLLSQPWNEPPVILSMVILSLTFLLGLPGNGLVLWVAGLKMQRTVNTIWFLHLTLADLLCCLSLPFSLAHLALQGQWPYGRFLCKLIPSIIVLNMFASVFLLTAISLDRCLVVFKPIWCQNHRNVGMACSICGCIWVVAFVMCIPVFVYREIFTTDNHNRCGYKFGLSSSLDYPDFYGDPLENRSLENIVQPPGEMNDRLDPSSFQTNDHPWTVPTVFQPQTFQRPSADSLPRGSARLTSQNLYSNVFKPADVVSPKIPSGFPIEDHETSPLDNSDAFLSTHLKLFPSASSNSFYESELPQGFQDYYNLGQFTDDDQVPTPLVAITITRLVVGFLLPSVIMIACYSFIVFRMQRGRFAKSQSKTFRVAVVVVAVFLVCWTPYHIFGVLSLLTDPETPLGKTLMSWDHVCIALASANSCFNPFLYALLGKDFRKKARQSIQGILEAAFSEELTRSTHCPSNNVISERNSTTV
Assay: Agonist activity at human C3a receptor in human U937 cells assessed as induction of intracellular calcium release at 1 mM
Format: functional, cell-based
Conditions: U-937

Compound	Activity
CC(C)C[C@H](NC(=O)[C@@H](N)Cc1ccccc1)C(=O)N[C@H](C(=O)N[C@H](CC1CCCCC1)C(=O)N[C@@H](C)C(=O)N[C@@H](CCCNC(=N)N)C(=O)O)[C@@H](C)O	inactive
CC(C)C[C@H](NC(=O)[C@@H]1CCCN1C(=O)[C@H](CCCCN)NC(=O)[C@@H](N)Cc1ccccc1)C(=O)N[C@@H](Cc1ccccc1)C(=O)N[C@@H](CCCNC(=N)N)C(=O)O (H-FKPLFR-OH)	inactive
C[C@H](NC(=O)[C@H](CC1CCCCC1)NC(=O)[C@@H]1CCCN1C(=O)[C@H](CCCCN)NC(=O)[C@@H](N)Cc1ccccc1)C(=O)N[C@@H](CCCNC(=N)N)C(=O)O (H-FKP[Cha]AR-OH)	inactive
CNCCC[C@H](NC(=O)[C@@H](N)Cc1ccccc1)C(=O)N[C@H](C(=O)N[C@@H](CC(C)C)C(=O)N[C@@H](C)C(=O)N[C@@H](CCCNC(=N)N)C(=O)O)[C@@H](C)O (H-F[Orn(Me)]TLAR-OH)	inactive
CC(C)C[C@H](NC(=O)[C@@H]1CCCN1C(=O)[C@H](CCC(=O)O)NC(=O)[C@@H](N)Cc1ccccc1)C(=O)N[C@@H](C)C(=O)N[C@@H](CCCNC(=N)N)C(=O)O (H-FEPLAR-OH)	inactive
CC[C@H](C)[C@H](NC(=O)[C@@H](NC(=O)[C@H](CC(C)C)NC(=O)[C@@H](N)Cc1ccccc1)[C@@H](C)O)C(=O)N[C@@H](C)C(=O)N[C@@H](CCCNC(=N)N)C(=O)O (H-FLTIAR-OH)	inactive
C[C@H](NC(=O)[C@H](Cc1c[nH]c2ccccc12)NC(=O)[C@@H]1CCCN1C(=O)[C@H](CCCCN)NC(=O)[C@@H](N)Cc1ccccc1)C(=O)N[C@@H](CCCNC(=N)N)C(=O)O (H-FKPWAR-OH)	inactive
CC(C)C[C@H](NC(=O)[C@@H]1CCCN1C(=O)[C@H](CCCCN)NC(=O)[C@@H](N)CC1CCCCC1)C(=O)N[C@@H](C)C(=O)N[C@@H](CCCNC(=N)N)C(=O)O (H-[Cha]KPLAR-OH)	inactive
CC(C)C[C@H](NC(=O)[C@@H](NC(=O)[C@H](CC(C)C)NC(=O)[C@@H](N)CCCNC(=N)N)[C@@H](C)O)C(=O)N[C@@H](C)C(=O)N[C@@H](CCCNC(=N)N)C(=O)O (H-RLTLAR-OH)	inactive
CC(C)C[C@H](NC(=O)[C@H](Cc1ccccc1)NC(=O)[C@H](CCCCN)NC(=O)[C@@H](N)Cc1ccccc1)C(=O)N[C@@H](C)C(=O)N[C@@H](CCCNC(=N)N)C(=O)O (H-FKFLAR-OH)	inactive
CC(C)C[C@H](NC(=O)[C@@H]1CCCN1C(=O)[C@H](CCCCN)NC(=O)[C@@H](N)Cc1ccccc1)C(=O)N[C@@H](CC1CCCCC1)C(=O)N[C@@H](CCCNC(=N)N)C(=O)O (H-FKPL[Cha]R-OH)	inactive
CC(C)C[C@H](NC(=O)[C@@H]1CCCN1C(=O)[C@H](CCCCN)NC(=O)[C@@H](N)Cc1cnc[nH]1)C(=O)N[C@@H](C)C(=O)N[C@@H](CCCNC(=N)N)C(=O)O (H-HKPLAR-OH)	inactive

Biological target: T2, C3a anaphylatoxin chemotactic receptor (Homo sapiens, UniProt Q16581)
T2 sequence (Q16581 whole entry): T1 sequence (whole entry)
Assay: Agonist activity at human C3a receptor in human U937 cells assessed as induction of intracellular calcium release
Format: functional, cell-based, U-937
Conditions: read-out: EC50

Compound	EC50 [nM]
CSCC[C@H](NC(=O)[C@@H]1CCCN1C(=O)[C@H](CCCCN)NC(=O)[C@H](Cc1cnc[nH]1)NC(=O)[C@H](CO)NC(=O)[C@@H](N)Cc1ccc(O)cc1)C(=O)N1CCC[C@H]1C(=O)N[C@@H](CC(C)C)C(=O)N[C@H](C)C(=O)N[C@@H](CCCN=C(N)N)C(=O)O	5700
CC(C)C[C@H](NC(=O)[C@H](C)NC(=O)[C@H](CC(C)C)NC(=O)[C@@H](N)Cc1ccccc1)C(=O)N[C@@H](C)C(=O)N[C@@H](CCCNC(=N)N)C(=O)O (H-FLALAR-OH)	101000
CC(C)C[C@H](NC(=O)[C@@H]1CCCN1C(=O)[C@H](CCCCN)NC(=O)[C@@H](N)Cc1ccccc1)C(=O)N[C@@H](Cc1c[nH]c2ccccc12)C(=O)N[C@@H](CCCN=C(N)N)C(=O)O (H-FKPLWR-OH)	25000
CC(C)C[C@H](NC(=O)[C@@H]1CCCN1C(=O)[C@H](CC(C)C)NC(=O)[C@@H](N)Cc1ccccc1)C(=O)N[C@@H](C)C(=O)N[C@@H](CCCNC(=N)N)C(=O)O (H-FLPLAR-OH)	420
CCCC[C@H](NC(=O)[C@@H](N)Cc1ccccc1)C(=O)N1CCC[C@H]1C(=O)N[C@@H](CC(C)C)C(=O)N[C@@H](C)C(=O)N[C@@H](CCCN=C(N)N)C(=O)O (H-F[Nle]PLAR-OH)	1800
CC(C)C[C@H](NC(=O)[C@@H]1CCCN1C(=O)[C@H](Cc1ccccc1)NC(=O)[C@@H](N)Cc1ccccc1)C(=O)N[C@@H](C)C(=O)N[C@@H](CCCNC(=N)N)C(=O)O (H-FFPLAR-OH)	5400
CC(C)C[C@H](NC(=O)[C@H](CO)NC(=O)[C@H](CC(C)C)NC(=O)[C@@H](N)Cc1ccccc1)C(=O)N[C@@H](C)C(=O)N[C@@H](CCCNC(=N)N)C(=O)O (H-FLSLAR-OH)	360
CC(C)C[C@H](NC(=O)[C@H](C)NC(=O)[C@H](Cc1c[nH]c2ccccc12)NC(=O)[C@@H](N)Cc1ccccc1)C(=O)N[C@@H](C)C(=O)N[C@@H](CCCN=C(N)N)C(=O)O (H-FWALAR-OH)	1200
CC(C)C[C@H](NC(=O)[C@@H]1CCCN1C(=O)[C@H](CCc1ccccc1)NC(=O)[C@@H](N)Cc1ccccc1)C(=O)N[C@@H](C)C(=O)N[C@@H](CCCN=C(N)N)C(=O)O (H-F[hPhe]PLAR-OH)	1100
CC(C)C[C@H](NC(=O)CNC(=O)[C@H](Cc1c[nH]c2ccccc12)NC(=O)[C@@H](N)Cc1ccccc1)C(=O)N[C@@H](C)C(=O)N[C@@H](CCCNC(=N)N)C(=O)O (H-FWGLAR-OH)	470
CC(C)C[C@H](NC(=O)[C@@H](N)Cc1ccccc1)C(=O)N[C@H](C(=O)N[C@@H](CC(C)C)C(=O)N1CCC[C@H]1C(=O)N[C@@H](CCCN=C(N)N)C(=O)O)[C@@H](C)O (H-FLTLPR-OH)	29000
CC(C)C[C@H](NC(=O)[C@@H]1CCCN1C(=O)[C@H](CC1CCCCC1)NC(=O)[C@@H](N)Cc1ccccc1)C(=O)N[C@@H](C)C(=O)N[C@@H](CCCNC(=N)N)C(=O)O (H-F[Cha]PLAR-OH)	780
CC(C)C[C@H](NC(=O)[C@@H](NC(=O)[C@H](CCCCN)NC(=O)[C@@H](N)Cc1ccccc1)[C@@H](C)O)C(=O)N[C@@H](C)C(=O)N[C@@H](CCCNC(=N)N)C(=O)O (H-FKTLAR-OH)	3800
CC(C)C[C@H](NC(=O)[C@@H](NC(=O)[C@H](CC(C)C)NC(=O)[C@@H](N)CCc1ccccc1)[C@@H](C)O)C(=O)N[C@@H](C)C(=O)N[C@@H](CCCNC(=N)N)C(=O)O (H-[hPhe]LTLAR-OH)	11000
CCCC[C@H](NC(=O)[C@@H](N)Cc1ccccc1)C(=O)N[C@H](C(=O)N[C@@H](CC(C)C)C(=O)N[C@@H](C)C(=O)N[C@@H](CCCN=C(N)N)C(=O)O)[C@@H](C)O (H-F[Nle]TLAR-OH)	310
CC(C)C[C@H](NC(=O)[C@H](CO)NC(=O)[C@H](Cc1c[nH]c2ccccc12)NC(=O)[C@@H](N)Cc1ccccc1)C(=O)N[C@@H](C)C(=O)N[C@@H](CCCNC(=N)N)C(=O)O (H-FWSLAR-OH)	490
CCCC[C@H](NC(=O)[C@@H]1CCCN1C(=O)[C@H](CCCCN)NC(=O)[C@@H](N)Cc1ccccc1)C(=O)N[C@@H](C)C(=O)N[C@@H](CCCN=C(N)N)C(=O)O (H-FKP[Nle]AR-OH)	38000
CC(=O)N[C@@H](Cc1ccccc1)C(=O)N[C@@H](CC(C)C)C(=O)N[C@H](C(=O)N[C@@H](CC(C)C)C(=O)N[C@@H](C)C(=O)N[C@@H](CCCNC(=N)N)C(=O)O)[C@@H](C)O (Ac-FLTLAR-OH)	520
N=C(N)NCCC[C@@H](NC(=O)[C@H](CC1CCCCC1)NC(=O)[C@@H](CC1CCCCC1)NC(=O)[C@@H]1CCCN1C(=O)[C@H](CCCCN)NC(=O)[C@@H](N)Cc1ccccc1)C(N)=O	2200
CC(C)C[C@H](NC(=O)[C@@H]1CCCN1C(=O)[C@H](CCCCN)NC(=O)[C@@H](N)Cc1ccccc1)C(=O)N[C@@H](C)C(=O)N[C@@H](CCCNC(=N)N)C(=O)O (H-FKPLAR-OH)	33000
CC(C)C[C@H](NC(=O)[C@@H](NC(=O)[C@H](CC(C)C)NC(=O)[C@@H](N)Cc1ccccc1)[C@@H](C)O)C(=O)N[C@@H](C)C(=O)N[C@@H](CCCN=C(N)N)C(N)=O (H-FLTLAR-NH2)	37000
CC(C)C[C@H](NC(=O)[C@@H](NC(=O)[C@H](CCCNC(=N)N)NC(=O)[C@@H](N)Cc1ccccc1)[C@@H](C)O)C(=O)N[C@@H](C)C(=O)N[C@@H](CCCNC(=N)N)C(=O)O (H-FRTLAR-OH)	6800
CCCC[C@H](NC(=O)[C@@H](NC(=O)[C@H](CC(C)C)NC(=O)[C@@H](N)Cc1ccccc1)[C@@H](C)O)C(=O)N[C@@H](C)C(=O)N[C@@H](CCCN=C(N)N)C(=O)O (H-FLT[Nle]AR-OH)	2700
CC(C)C[C@H](NC(=O)[C@@H]1CCCN1C(=O)[C@H](Cc1cccc2ccccc12)NC(=O)[C@@H](N)Cc1ccccc1)C(=O)N[C@@H](C)C(=O)N[C@@H](CCCNC(=N)N)C(=O)O (H-F[1Nal]PLAR-OH)	720
CC(C)C[C@H](NC(=O)[C@@H]1CCCN1C(=O)[C@H](CCC(N)=O)NC(=O)[C@@H](N)Cc1ccccc1)C(=O)N[C@@H](C)C(=O)N[C@@H](CCCNC(=N)N)C(=O)O (H-FQPLAR-OH)	5300
CC(C)C[C@H](NC(=O)[C@@H](NC(=O)[C@H](CC(C)C)NC(=O)[C@@H](N)Cc1ccc(O)cc1)[C@@H](C)O)C(=O)N[C@@H](C)C(=O)N[C@@H](CCCN=C(N)N)C(=O)O (H-YLTLAR-OH)	2500
CC(C)C[C@H](NC(=O)[C@@H](NC(=O)[C@H](CC(C)C)NC(=O)[C@@H](N)Cc1ccccc1)C(C)C)C(=O)N[C@@H](C)C(=O)N[C@H](CCCN=C(N)N)C(=O)O	57000

Same assay, conditions: read-out: pEC50 (converted)

Compound	EC50 [nM]
CC(C)C[C@H](NC(=O)[C@H](C)NC(=O)[C@H](CC(C)C)NC(=O)[C@@H](N)Cc1ccccc1)C(=O)N[C@@H](C)C(=O)N[C@@H](CCCNC(=N)N)C(=O)O (H-FLALAR-OH)	1100

— ChEMBL document CHEMBL1177720, “Selective hexapeptide agonists and antagonists for human complement C3a receptor” (J Med Chem, 2010)
